Test results: article PMC9101642 (Molecules, 2022)
Like-named read-outs stand apart in the source and are kept apart here. Marks after values point to notes of the source that are not given here.

Key:
ERα = molecular target: T1, ERα (Homo sapiens, UniProt P03372); test: Fluorescence polarization competition assay: antagonistic potency and relative binding affinity; conditions: virtually screened NCI hits, Table S17; read-out: ERα (IC50)
T1 sequence (P03372 1-595): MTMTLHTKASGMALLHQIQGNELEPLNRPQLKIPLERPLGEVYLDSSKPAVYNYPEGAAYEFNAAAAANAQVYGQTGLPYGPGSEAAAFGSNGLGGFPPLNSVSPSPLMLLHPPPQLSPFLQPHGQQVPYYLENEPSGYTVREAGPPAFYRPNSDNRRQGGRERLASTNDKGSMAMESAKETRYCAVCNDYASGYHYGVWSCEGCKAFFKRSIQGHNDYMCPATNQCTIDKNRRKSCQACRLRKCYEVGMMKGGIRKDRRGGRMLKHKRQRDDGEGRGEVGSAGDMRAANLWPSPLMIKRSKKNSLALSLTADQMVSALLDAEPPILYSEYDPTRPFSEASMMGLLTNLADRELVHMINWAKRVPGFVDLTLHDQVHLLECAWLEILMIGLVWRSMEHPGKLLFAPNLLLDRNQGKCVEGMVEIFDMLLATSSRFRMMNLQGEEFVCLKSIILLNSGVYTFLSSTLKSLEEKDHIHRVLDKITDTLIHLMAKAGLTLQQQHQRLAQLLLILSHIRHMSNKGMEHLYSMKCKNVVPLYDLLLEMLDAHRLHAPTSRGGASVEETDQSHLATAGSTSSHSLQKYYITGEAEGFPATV

MDA-MB-231 cell lines = test: MTT antiproliferative assay; format: cell-based, human
[1] = system: MRC-5 human lung fibroblast cell lines
MCF-7 cell lines = test: MTT antiproliferative assay; format: cell-based, human
[2] = Plasma protein binding determination; format: in vitro ADME, rat; conditions: rat, plasma
Protocol: (§1) Rats were housed at 3 per cage and
(§2) The breast cancer was induced after the MNU (Sigma Aldrich CAS No. 684-93-5) administration. An aqueous solution at a concentration of 10 mg/ml was made by wetting the NMU powder with 3% acetic acid and then dissolving it in 0.9% NaCl solution; a fresh solution was prepared for each injection. Rats were given intraperitoneal (i.p.) 50 mg/kg of MNU on the 50th day of age. Animals were divided into different groups with six animals in each group. Group I (intact control) received 0.9% NaCl solution.
(§3) Groups II-IV and V-VII were introduced with MNU. Two weeks after MNU treatment, animals were treated orally with synthesized compounds and control substances (5 and 50 mg/kg, for groups II-IV and V-VII, respectively) by gavage once per day for six weeks. Animals in the intact control group and untreated MNU group were given vehicle (Tween 80) according to the experimental protocol. […]
(§4) Upon finishing the treatment with synthesized compounds, animals were sacrificed, and plasma, serum, and liver samples were collected. […]
Rat plasma containing either 5 or 50 mg/kg bwt of the tested compounds was incubated at 37°C upper reservoir of the washed Centri-free YM-30 ultrafiltration units (Millipore, Bedford, MA) and then centrifuged for 20 min at 2,000 g. Aliquots of the ultrafiltrates and unfiltered incubation mixtures were analyzed for the total protein concentration by the bicinchoninic acid assay for protein concentration (BCA assay; Pierce, Rockford, IL).

[3] = system: progesterone receptor (PR); test: ERα functional antagonism cell assay (PR as biomarker) in MCF-7; format: cell-based; conditions: Homo sapiens, MCF7; progesterone receptor as biomarker for ERα antagonism in MCF-7
physchem = conditions: pH 7.4
[4] = Serum biochemical markers after treatment of MNU-induced rats; format: in vivo, Wistar rats; conditions: for ALP (A/L) / ALT (A/L) / AST (U/L) / γ-GT (U/L): serum; for TBC: total bilirubin content
Protocol: as §1, §2, §3
Upon finishing the treatment with synthesized compounds, animals were sacrificed, and plasma, serum, and liver samples were collected.
Measurement of Serum Biochemical Markers
The activities of AST and ALT on 340 nm, and ALP on 405 nm, were determined by UV-Vis kinetic methods according to recommendations of the Expert Panel of the IFCC (International Federation of Clinical Chemistry). The colorimetric methods were used for the determination of total bilirubin (Jendrassik-Grof 550 nm method). All kinetic and colorimetric measurements were recorded using a Perkin-Elmer Lambda 25 UV/Vis spectrophotometer. […]

MCF-7 cells = test: Cell cycle distribution by flow cytometry; format: cell-based, human; conditions: 24 h
[5] = both, Wistar, rat, in vivo, po
[6] = system: MNU-induced breast cancer tissue; test: Histopathology of breast sections; format: in vivo, Wistar rats
Excerpt: The impact of selected leads on BC tissue was registered after their administration to experimental animals with MNU-induced BC (Figure 9 and Supplementary Material Figures S211–S218). […] In contrast to this, the administered leads were harmless in both concentrations, neutralizing the MNU-induced changes, judging by the lobuloalveolar units and cuboidal epithelial cells found (Figure 9C,D, and Supplementary Material Figures S214–S218). […]
Histopathological Studies
histopathological changes. […]

[7] = system: Ishikawa endometrial adenocarcinoma cells; test: Antiproliferative assay; format: cell-based; conditions: Homo sapiens, growth inhibition
ERβ = ERβ (Homo sapiens, UniProt Q92731); test: Fluorescence polarization competition assay: antagonistic potency and relative binding affinity; conditions: log of % relative binding affinity, estradiol = 100%
[8] = Liver oxidative stress markers after treatment of MNU-induced rats; format: in vivo, Wistar rats; conditions: rat, in vivo
Protocol: as §1, §2, §3, §4
Determination of Antioxidant Markers in Liver Homogenate
Rat liver samples were homogenized in phosphate buffer (5 mM, pH = 7.4) to give a 10% (w/v) liver homogenate and then centrifuged at 4000 rpm for 15 min at 4°C. The supernatant of liver homogenate was used for the estimation of reduced glutathione (GSH) and catalase (CAT) levels by the colorimetric method. The contents of malondialdehyde (MDA) in the supernatant of the liver homogenates were determined using 1,1,3,3-tetraethoxypropane as standard. Total protein concentrations were determined according to the method of Lowry using bovine serum albumin as […]

[9] = system: MNU-induced breast cancer; test: In vivo anticancer screening, MNU-induced mammary tumorigenesis; design: species or system female Wistar rats
[10] = rat, in vivo
[11] = virtually screened NCI hits, Table S17, read-out: MDA-MB-231 (IC50)
[12] = virtually screened NCI hits, Table S17, read-out: MCF-7 (IC50)
[13] = dose 50 mg/kg (compounds per os after MNU; MNU alone i.p.)

Sequence of ERβ (Q92731 whole entry): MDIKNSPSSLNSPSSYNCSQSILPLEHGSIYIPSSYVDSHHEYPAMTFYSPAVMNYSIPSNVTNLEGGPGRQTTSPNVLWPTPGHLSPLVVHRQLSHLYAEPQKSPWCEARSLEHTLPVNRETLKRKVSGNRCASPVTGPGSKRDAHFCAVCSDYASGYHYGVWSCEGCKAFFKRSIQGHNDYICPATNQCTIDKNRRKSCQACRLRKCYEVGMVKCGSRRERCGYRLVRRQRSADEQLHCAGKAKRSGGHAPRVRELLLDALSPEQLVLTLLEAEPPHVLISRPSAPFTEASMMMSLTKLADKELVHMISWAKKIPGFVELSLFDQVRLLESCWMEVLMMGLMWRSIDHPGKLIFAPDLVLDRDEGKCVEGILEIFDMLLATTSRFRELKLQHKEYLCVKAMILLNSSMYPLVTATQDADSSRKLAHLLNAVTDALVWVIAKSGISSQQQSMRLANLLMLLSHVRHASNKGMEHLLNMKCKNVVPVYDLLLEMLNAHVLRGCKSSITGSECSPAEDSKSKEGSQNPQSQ

O=C(O)c1ccccc1-n1c2ccccc2c2ccccc21 [Compound 10211]
IC50 (ERα): 66.9 ± 6.46 µM | IC50 (MDA-MB-231 cell lines; [11]): > 100000 nM | IC50 [1]: > 100 µM

O=C(c1ccccc1)c1ccccc1C(=O)c1ccccc1 [Compound 6145]
IC50 (ERα): 75.5 ± 6.46 µM | IC50 (MDA-MB-231 cell lines; [11]): > 100000 nM | IC50 [1]: > 100 µM | IC50 (MCF-7 cell lines; [12]): 93400 ± 11400 nM

c1ccc(-n2c3ccccc3c3ccccc32)cc1 [Compound 10416]
IC50 (ERα): 74.8 ± 6.46 µM | IC50 (MDA-MB-231 cell lines; [11]): > 100000 nM | IC50 [1]: > 100 µM | IC50 (MCF-7 cell lines; [12]): 89000 ± 11400 nM

O=C(c1ccc(OCCN2CCCCC2)cc1)c1c(-c2ccc(O)cc2)sc2cc(O)ccc12 [Ral., Raloxifene, reference compound]
fraction unbound at 5 mg/kg bwt [2]: 0.0185 | fraction unbound at 50 mg/kg bwt [2]: 0.019 | IC50 [3]: > 100 nM | logD at 30 min (physchem): 2.39 | IC50 (MDA-MB-231 cell lines; growth inhibition, 48 h, read-out: MDA-MB-231 (IC50 nM)): 93.41 ± 0.48 nM | IC50 (MDA-MB-231 cell lines; references in Table S17, read-out: MDA-MB-231 (IC50 nM)): 93.12 ± 0.24 nM | ALP (A/L) ([4]; dose 5 mg/kg): 99.54±0.32 A/L | ALT (A/L) ([4]; dose 5 mg/kg): 50.14±0.35 A/L | AST (U/L) ([4]; dose 5 mg/kg): 53.57±0.43 U/L | γ-GT (U/L) ([4]; dose 5 mg/kg): 11.43 U/L | ALP (A/L) ([4]; dose 50 mg/kg): 106.43±0.54 A/L | ALT (A/L) ([4]; dose 50 mg/kg): 52.46±0.42 A/L | AST (U/L) ([4]; dose 50 mg/kg): 58.41±0.32 U/L | γ-GT (U/L) ([4]; dose 50 mg/kg): 12.35±0.31 U/L | TBC ([4]; dose 5 mg/kg): 18.53 | TBC ([4]; dose 50 mg/kg): 22.46 | Cell Cycle (%) G0/G1 (MCF-7 cells; 0.1 nM): 59.14 ± 0.54 *^,†,‡ % | Cell Cycle (%) G2/M (MCF-7 cells; 0.1 nM): 25.03 ± 0.35 *^,†,‡ % | Cell Cycle (%) S (MCF-7 cells; 0.1 nM): 15.83 ± 0.53 *^,†,‡ % | Cell Cycle (%) G0/G1 (MCF-7 cells; 1 nM): 66.52 ± 0.56 *^,†,‡ % | Cell Cycle (%) G2/M (MCF-7 cells; 1 nM): 17.11 ± 0.46 *^,†,‡ % | Cell Cycle (%) S (MCF-7 cells; 1 nM): 16.37 ± 0.46 *^,†,‡ % | BIO ([5]; 5 mg/kg): 93 ^‡ | BIO ([5]; 50 mg/kg): 96 | breast section histopathology ([6]; 5 mg/kg of bwt): differentiated extralobular ducts (ED) | breast section histopathology ([6]; 50 mg/kg of bwt): differentiated extralobular ducts (ED) | IC50 [7]: 0.97 ± 0.35 nM | logRBA ERβ (ERβ): 1.42 ^† | CAT ([8]; 5 mg/kg): 10.73±0.32 | GSH ([8]; 5 mg/kg): 6.65 mg/g | SOD (U/mg) ([8]; 5 mg/kg): 6.89±0.56 U/mg | TBARS ([8]; 5 mg/kg): 2.31 ± 0.56 nmol/mg | TP ([8]; 5 mg/kg): 42.67 g/L | CAT ([8]; 50 mg/kg): 14.43±0.56 | GSH ([8]; 50 mg/kg): 5.54 ± 0.36 mg/g | SOD (U/mg) ([8]; 50 mg/kg): 8.46±0.23 U/mg | TBARS ([8]; 50 mg/kg): 2.63 ± 0.21 nmol/mg | TP ([8]; 50 mg/kg): 44.43 g/L | Tumor Burden (week) ([9]; dose 5 mg/kg per os after MNU): 3.11 ± 0.47 *^,†,‡ week | Tumor Latency (week) ([9]; dose 5 mg/kg per os after MNU): 8 * week | Tumor Volume (mm^3) ([9]; dose 5 mg/kg per os after MNU): 1.67 ± 0.31 *^,†,‡ mm^3 | Tumor Burden (week) [9, 13]: 2.91 ± 0.22 *^,†,§ week | Tumor Latency (week) [9, 13]: 13 *^,† week | Tumor Volume (mm^3) [9, 13]: 1.41 ± 0.54 *^,†§ mm^3 | IC50 (MCF-7 cell lines; read-out: MCF-7 (IC50 nM)): 0.9 ± 0.19 nM | WL after MFD (day 1, mg) [10]: 310.54 ± 0.45 mg | WL after MFD (day 5, mg) [10]: 300.54 ± 0.48 mg

O=c1c(-c2ccc(O)cc2)coc2cc(O)cc(O)c12 [Compound 36586]
IC50 (MDA-MB-231 cell lines; [11]): > 100000 nM | IC50 [1]: > 100 µM | IC50 (MCF-7 cell lines; [12]): > 100000 nM

COc1ccc(C(C#N)=C(c2ccccc2)c2ccccc2)cc1 [Compound 101789]
IC50 (ERα): 17.9 ± 1.34 µM | IC50 (MDA-MB-231 cell lines; [11]): > 100000 nM | IC50 [1]: 14.2 ± 11.4 µM | IC50 (MCF-7 cell lines; [12]): 25900 ± 11400 nM
